In patent US7608619B2, “Substituted oxazole compounds with analgesic activity” (Gruenenthal GmbH, priority 2005, dated 2009):

target: T1, human μ-opiate receptor (Homo sapiens, UniProt P35372); test: Affinity for the human μ-opiate receptor ([3H]-naloxone displacement, SPA, CHO-K1 membrane preparation); conditions: test substance 1 μmole/l; displacement of 1 nmole/l [3H]-naloxone; percentage inhibition of the specific binding; read-out: μ-opioid receptor, % inhibition [1 μM]
T1 construct: purchased Nen company, Zaventem, Belgium RB-HOM; host or cells: CHO-K1 cells (membrane preparation)
T1 sequence (P35372 whole entry): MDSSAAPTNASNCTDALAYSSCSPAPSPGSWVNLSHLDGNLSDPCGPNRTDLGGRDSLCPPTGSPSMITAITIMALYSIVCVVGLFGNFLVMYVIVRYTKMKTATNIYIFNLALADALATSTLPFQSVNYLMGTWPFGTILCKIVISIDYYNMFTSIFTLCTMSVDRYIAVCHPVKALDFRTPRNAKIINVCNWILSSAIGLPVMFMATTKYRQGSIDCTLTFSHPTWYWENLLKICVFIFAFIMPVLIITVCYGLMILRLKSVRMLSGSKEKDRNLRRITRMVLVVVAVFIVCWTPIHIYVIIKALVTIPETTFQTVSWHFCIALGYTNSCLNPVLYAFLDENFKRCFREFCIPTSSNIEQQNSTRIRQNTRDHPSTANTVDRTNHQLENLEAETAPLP
Outline: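 [3H]-naloxone (1 nmol/l) displacement by SPA with WGA beads, using membranes of CHO-K1 cells expressing the receptor, in 50 mmol/l Tris-HCl with 0.05% azide and 0.06% BSA; 90 min at room temperature. Non-specific binding defined with 25 μmol/l naloxone. Value is % inhibition of specific binding at 1 μmol/l test compound.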

| Structure (SMILES) | inhibition at 1 µM [%] |
| --- | --- |
| COc1ccc(N2CCN(c3oc(C(C4CCC(C(c5cccs5)N(C)C)CC4)N4CCc5ccccc5C4)nc3Cc3ccccc3)CC2)cc1 (centres unmarked) [compound 147, ({4-[{4-benzyl-5-[4-(4-methoxyphenyl)-piperazin-1-yl]-oxazol-2-yl}-(3,4-dihydro-1H-isoquinolin-2-yl)-methyl]-cyclohexyl}-thiophen-2-yl-methyl)-dimethylamine] | 91 |
| CC1CN(c2oc(C(C3CCC(C(c4cccs4)N(C)C)CC3)N3CCc4ccccc4C3)nc2Cc2ccccc2)CC(C)O1 (centres unmarked) [compound 148, ({4-[[4-benzyl-5-(2,6-dimethylmorpholin-4-yl)-oxazol-2-yl]-(3,4-dihydro-1H-isoquinolin-2-yl)-methyl]-cyclohexyl}-thiophen-2-yl-methyl)-dimethylamine] | 84 |
| CN(C)C(c1cccc(F)c1)C1CCC(CC(c2nc(Cc3ccccc3)c(N3CCCC3)o2)N2CCOCC2)CC1 (centres unmarked) [compound 149, [{4-[2-(4-benzyl-5-pyrrolidin-1-yl-oxazol-2-yl)-2-morpholin-4-yl-ethyl]-cyclohexyl}-(3-fluorophenyl)-methyl]-dimethylamine] | 87 |
| CN(C)C(c1cccc(F)c1)C1CCC(CC(c2nc(Cc3ccccc3)c(N3CCOCC3)o2)N2CCOCC2)CC1 (centres unmarked) [compound 150, [{4-[2-(4-benzyl-5-morpholin-4-yl-oxazol-2-yl)-2-morpholin-4-yl-ethyl]-cyclohexyl}-(3-fluorophenyl)-methyl]-dimethylamine] | 75 |
| COc1ccc(N2CCN(c3oc(C(CC4CCC(C(c5cccc(F)c5)N(C)C)CC4)N4CCOCC4)nc3Cc3ccccc3)CC2)cc1 (centres unmarked) [compound 151, [[4-(2-{4-benzyl-5-[4-(4-methoxyphenyl)-piperazin-1-yl]-oxazol-2-yl}-2-morpholin-4-yl-ethyl)-cyclohexyl]-(3-fluorophenyl)-methyl]-dimethylamine] | 89 |
| CC1CN(c2oc(C(CC3CCC(C(c4cccc(F)c4)N(C)C)CC3)N3CCOCC3)nc2Cc2ccccc2)CC(C)O1 (centres unmarked) [compound 152, [(4-{2-[4-benzyl-5-(2,6-dimethylmorpholin-4-yl)-oxazol-2-yl]-2-morpholin-4-yl-ethyl}-cyclohexyl)-(3-fluorophenyl)-methyl]-dimethylamine] | 65 |
| CC1CN(c2oc(C(CC3CCC(C(c4cccc(F)c4)N(C)C)CC3)N3CCN(c4ccc(F)cc4)CC3)nc2Cc2ccccc2)CC(C)O1 (centres unmarked) [compound 153, [(4-{2-[4-benzyl-5-(2,6-dimethylmorpholin-4-yl)-oxazol-2-yl]-2-[4-(4-fluorophenyl)-piperazin-1-yl]-ethyl}-cyclohexyl)-(3-fluorophenyl)-methyl]-dimethylamine] | 71 |
| COc1ccc(N2CCN(C(CC3CCC(C(c4cccc(F)c4)N(C)C)CC3)c3nc(Cc4ccccc4)c(N4CCOCC4)o3)CC2)cc1 (centres unmarked) [compound 154, [(4-{2-(4-benzyl-5-morpholin-4-yl-oxazol-2-yl)-2-[4-(4-methoxy-phenyl)-piperazin-1-yl]-ethyl}-cyclohexyl)-(3-fluorophenyl)-methyl]-dimethylamine] | 86 |
| COc1ccc(N2CCN(c3oc(C(CC4CCC(C(c5cccc(F)c5)N(C)C)CC4)N4CCN(c5ccc(OC)cc5)CC4)nc3Cc3ccccc3)CC2)cc1 (centres unmarked) [compound 155, [(4-{2-{4-benzyl-5-[4-(4-methoxyphenyl)-piperazin-1-yl]-oxazol-2-yl}-2-[4-(4-methoxyphenyl)-piperazin-1-yl]-ethyl}-cyclohexyl)-(3-fluorophenyl)-methyl]-dimethylamine] | 82 |
| COc1ccc(N2CCN(C(CC3CCC(C(c4cccc(F)c4)N(C)C)CC3)c3nc(Cc4ccccc4)c(N4CC(C)OC(C)C4)o3)CC2)cc1 (centres unmarked) [compound 156, [(4-{2-[4-benzyl-5-(2,6-dimethylmorpholin-4-yl)-oxazol-2-yl]-2-[4-(4-methoxyphenyl)-piperazin-1-yl]-ethyl}-cyclohexyl)-(3-fluorophenyl)-methyl]-dimethylamine] | 74 |
| COc1ccc(N2CCN(c3oc(C(CC4CCC(C(c5cccc(F)c5)N(C)C)CC4)N4CCc5ccccc5C4)nc3Cc3ccccc3)CC2)cc1 (centres unmarked) [compound 157, [{4-[2-{4-benzyl-5-[4-(4-methoxy-phenyl)-piperazin-1-yl]-oxazol-2-yl}-2-(3,4-dihydro-1H-isoquinolin-2-yl)-ethyl]-cyclohexyl}-(3-fluorophenyl)-methyl]-dimethylamine] | 84 |
| CN(C)C(c1cccs1)C1CCC(CC(c2nc(Cc3ccccc3)c(N3CCOCC3)o2)N2CCOCC2)CC1 (centres unmarked) [compound 158, ({4-[2-(4-benzyl-5-morpholin-4-yl-oxazol-2-yl)-2-morpholin-4-yl-ethyl]-cyclohexyl}-thiophen-2-yl-methyl)-dimethylamine] | 83 |
| COc1ccc(N2CCN(c3oc(C(CC4CCC(C(c5cccs5)N(C)C)CC4)N4CCOCC4)nc3Cc3ccccc3)CC2)cc1 (centres unmarked) [compound 159, {[4-(2-{4-benzyl-5-[4-(4-methoxyphenyl)-piperazin-1-yl]-oxazol-2-yl}-2-morpholin-4-yl-ethyl)-cyclohexyl]-thiophen-2-yl-methyl}-dimethylamine] | 94 |
| CC1CN(c2oc(C(CC3CCC(C(c4cccs4)N(C)C)CC3)N3CCOCC3)nc2Cc2ccccc2)CC(C)O1 (centres unmarked) [compound 160, [(4-{2-[4-benzyl-5-(2,6-dimethyl-morpholin-4-yl)-oxazol-2-yl]-2-morpholin-4-yl-ethyl}-cyclohexyl)-thiophen-2-yl-methyl]-dimethylamine] | 79 |
| CN(C)C(c1cccs1)C1CCC(CC(c2nc(Cc3ccccc3)c(N3CCOCC3)o2)N2CCN(c3ccc(F)cc3)CC2)CC1 (centres unmarked) [compound 161, [(4-{2-(4-benzyl-5-morpholin-4-yl-oxazol-2-yl)-2-[4-(4-fluorophenyl)-piperazin-1-yl]-ethyl}-cyclohexyl)-thiophen-2-yl-methyl]-dimethylamine] | 87 |
| COc1ccc(N2CCN(c3oc(C(CC4CCC(C(c5cccs5)N(C)C)CC4)N4CCN(c5ccc(F)cc5)CC4)nc3Cc3ccccc3)CC2)cc1 (centres unmarked) [compound 162, [(4-{2-{4-benzyl-5-[4-(4-methoxy-phenyl)-piperazin-1-yl]-oxazol-2-yl}-2-[4-(4-fluorophenyl)-piperazin-1-yl]-ethyl}-cyclohexyl)-thiophen-2-yl-methyl]-dimethylamine] | 96 |
| COc1ccc(N2CCN(C(CC3CCC(C(c4cccs4)N(C)C)CC3)c3nc(Cc4ccccc4)c(N4CCCC4)o3)CC2)cc1 (centres unmarked) [compound 163, [(4-{2-(4-benzyl-5-pyrrolidin-1-yl-oxazol-2-yl)-2-[4-(4-methoxyphenyl)-piperazin-1-yl]-ethyl}-cyclohexyl)-thiophen-2-yl-methyl]-dimethylamine] | 83 |
| COc1ccc(N2CCN(c3oc(C(CC4CCC(C(c5cccs5)N(C)C)CC4)N4CCN(c5ccc(OC)cc5)CC4)nc3Cc3ccccc3)CC2)cc1 (centres unmarked) [compound 164, [(4-{2-{4-benzyl-5-[4-(4-methoxyphenyl)-piperazin-1-yl]-oxazol-2-yl}-2-[4-(4-methoxyphenyl)-piperazin-1-yl]-ethyl}-cyclohexyl)-thiophen-2-yl-methyl]-dimethylamine] | 93 |
| COc1ccc(N2CCN(C(CC3CCC(C(c4cccs4)N(C)C)CC3)c3nc(Cc4ccccc4)c(N4CC(C)OC(C)C4)o3)CC2)cc1 (centres unmarked) [compound 165, [(4-{2-[4-benzyl-5-(2,6-dimethyl-morpholin-4-yl)-oxazol-2-yl]-2-[4-(4-methoxyphenyl)-piperazin-1-yl]-ethyl}-cyclohexyl)-thiophen-2-yl-methyl]-dimethylamine] | 93 |
| COc1ccc(N2CCN(c3oc(C(CC4CCC(C(c5cccs5)N(C)C)CC4)N4CCc5ccccc5C4)nc3Cc3ccccc3)CC2)cc1 (centres unmarked) [compound 166, ({4-[2-{4-benzyl-5-[4-(4-methoxy-phenyl)-piperazin-1-yl]-oxazol-2-yl}-2-(3,4-dihydro-1H-isoquinolin-2-yl)-ethyl]-cyclohexyl}-thiophen-2-yl-methyl)-dimethylamine] | 78 |
